Results taken from ChEMBL document CHEMBL4507294, “Data for DCP probe MSD-CYP11B2” (2021).

How the values were obtained:
[1] = target: BMP-2-inducible protein kinase (Homo sapiens) (UniProt Q9NSY1); settings: Compound concentration 1000.0 nM
[2] = target: Mitogen-activated protein kinase 3 (Homo sapiens) (UniProt P27361); settings: Compound concentration 1000.0 nM
[3] = tested on: Receptor-type tyrosine-protein kinase FLT3 (Homo sapiens), P36888 [D835Y]; settings: Compound concentration 1000.0 nM
[4] = target: Macrophage colony-stimulating factor 1 receptor (Homo sapiens) (UniProt P07333); settings: Compound concentration 1000.0 nM
[5] = target: Serine/threonine-protein kinase TBK1 (Homo sapiens) (UniProt Q9UHD2); settings: Compound concentration 1000.0 nM
[6] = target: BDNF/NT-3 growth factors receptor (Homo sapiens) (UniProt Q16620); settings: Compound concentration 1000.0 nM
[7] = target: Casein kinase I isoform delta (Homo sapiens) (UniProt P48730); settings: Compound concentration 1000.0 nM
[8] = target: Receptor-interacting serine/threonine-protein kinase 2 (Homo sapiens) (UniProt O43353); settings: Compound concentration 1000.0 nM
[9] = target: Macrophage-stimulating protein receptor (Homo sapiens) (UniProt Q04912); settings: Compound concentration 1000.0 nM
[10] = target: Interleukin-1 receptor-associated kinase 4 (Homo sapiens) (UniProt Q9NWZ3); settings: Compound concentration 1000.0 nM
[11] = target: Bone morphogenetic protein receptor type-2 (Homo sapiens) (UniProt Q13873); settings: Compound concentration 1000.0 nM
[12] = target: Activated CDC42 kinase 1 (Homo sapiens) (UniProt Q07912); settings: Compound concentration 1000.0 nM
[13] = target: Serine/threonine-protein kinase PRP4 homolog (Homo sapiens) (UniProt Q13523); settings: Compound concentration 1000.0 nM
[14] = tested on: Receptor-type tyrosine-protein kinase FLT3 (Homo sapiens), P36888 [UNDEFINED MUTATION]; settings: Compound concentration 1000.0 nM
[15] = target: Serine/threonine-protein kinase Sgk3 (Homo sapiens) (UniProt Q96BR1); settings: Compound concentration 1000.0 nM
[16] = target: Serine/threonine-protein kinase 3 (Homo sapiens) (UniProt Q13188); settings: Compound concentration 1000.0 nM
[17] = target: Dual specificity protein kinase CLK4 (Homo sapiens) (UniProt Q9HAZ1); settings: Compound concentration 1000.0 nM
[18] = target: Phosphatidylinositol 4-kinase beta (Homo sapiens) (UniProt Q9UBF8); settings: Compound concentration 1000.0 nM
[19] = target: Atypical kinase COQ8A, mitochondrial (Homo sapiens) (UniProt Q8NI60); settings: Compound concentration 1000.0 nM
[20] = tested on: Epidermal growth factor receptor (Homo sapiens), P00533 [L861Q]; settings: Compound concentration 1000.0 nM
[21] = target: Tyrosine-protein kinase Lyn (Homo sapiens) (UniProt P07948); settings: Compound concentration 1000.0 nM
[22] = target: Phosphatidylinositol 4-phosphate 5-kinase type-1 gamma (Homo sapiens) (UniProt O60331); settings: Compound concentration 1000.0 nM
[23] = target: Serine/threonine-protein kinase LATS1 (Homo sapiens) (UniProt O95835); settings: Compound concentration 1000.0 nM
[24] = target: Serine/threonine-protein kinase PAK 3 (Homo sapiens) (UniProt O75914); settings: Compound concentration 1000.0 nM
[25] = target: Tyrosine-protein kinase Yes (Homo sapiens) (UniProt P07947); settings: Compound concentration 1000.0 nM
[26] = target: 5'-AMP-activated protein kinase catalytic subunit alpha-1 (Homo sapiens) (UniProt Q13131); settings: Compound concentration 1000.0 nM
[27] = target: Proto-oncogene tyrosine-protein kinase ROS (Homo sapiens) (UniProt P08922); settings: Compound concentration 1000.0 nM
[28] = target: Platelet-derived growth factor receptor alpha (Homo sapiens) (UniProt P16234); settings: Compound concentration 1000.0 nM
[29] = target: Serine/threonine-protein kinase Nek10 (Homo sapiens) (UniProt Q6ZWH5); settings: Compound concentration 1000.0 nM
[30] = target: Mitogen-activated protein kinase 1 (Homo sapiens) (UniProt P28482); settings: Compound concentration 1000.0 nM
[31] = target: Calcium/calmodulin-dependent protein kinase type II subunit beta (Homo sapiens) (UniProt Q13554); settings: Compound concentration 1000.0 nM
[32] = target: 5-hydroxytryptamine receptor 1D (Homo sapiens) (UniProt P28221); settings: Compound concentration 10.0 uM
[33] = target: Serine/threonine-protein kinase Chk2 (Homo sapiens) (UniProt O96017); settings: Compound concentration 1000.0 nM
[34] = tested on: Tyrosine-protein kinase ABL1 (Homo sapiens), P00519 [H396P]; settings: Compound concentration 1000.0 nM
[35] = tested on: Hepatocyte growth factor receptor (Homo sapiens), P08581 [M1250T]; settings: Compound concentration 1000.0 nM
[36] = tested on: Tyrosine-protein kinase ABL1 (Homo sapiens), P00519 [F317I]; settings: Compound concentration 1000.0 nM
[37] = target: Serine/threonine-protein kinase B-raf (Homo sapiens) (UniProt P15056); settings: Compound concentration 1000.0 nM
[38] = target: Calcium/calmodulin-dependent protein kinase type 1B (Homo sapiens) (UniProt Q6P2M8); settings: Compound concentration 1000.0 nM
[39] = target: Serine/threonine-protein kinase NIM1 (Homo sapiens) (UniProt Q8IY84); settings: Compound concentration 1000.0 nM
[40] = target: Serine/threonine-protein kinase Nek11 (Homo sapiens) (UniProt Q8NG66); settings: Compound concentration 1000.0 nM
[41] = target: RAF proto-oncogene serine/threonine-protein kinase (Homo sapiens) (UniProt P04049); settings: Compound concentration 1000.0 nM
[42] = target: Sigma non-opioid intracellular receptor 1 (Homo sapiens) (UniProt Q99720); settings: Compound concentration 10.0 uM
[43] = target: Myosin light chain kinase (Homo sapiens) (UniProt Q32MK0); settings: Compound concentration 1000.0 nM
[44] = tested on: Phosphatidylinositol 4,5-bisphosphate 3-kinase catalytic subunit alpha isoform (Homo sapiens), P42336 [Q546K]; settings: Compound concentration 1000.0 nM
[45] = target: Mitogen-activated protein kinase 9 (Homo sapiens) (UniProt P45984); settings: Compound concentration 1000.0 nM

Chain of Serine/threonine-protein kinase B-raf (Homo sapiens) (P15056 whole entry): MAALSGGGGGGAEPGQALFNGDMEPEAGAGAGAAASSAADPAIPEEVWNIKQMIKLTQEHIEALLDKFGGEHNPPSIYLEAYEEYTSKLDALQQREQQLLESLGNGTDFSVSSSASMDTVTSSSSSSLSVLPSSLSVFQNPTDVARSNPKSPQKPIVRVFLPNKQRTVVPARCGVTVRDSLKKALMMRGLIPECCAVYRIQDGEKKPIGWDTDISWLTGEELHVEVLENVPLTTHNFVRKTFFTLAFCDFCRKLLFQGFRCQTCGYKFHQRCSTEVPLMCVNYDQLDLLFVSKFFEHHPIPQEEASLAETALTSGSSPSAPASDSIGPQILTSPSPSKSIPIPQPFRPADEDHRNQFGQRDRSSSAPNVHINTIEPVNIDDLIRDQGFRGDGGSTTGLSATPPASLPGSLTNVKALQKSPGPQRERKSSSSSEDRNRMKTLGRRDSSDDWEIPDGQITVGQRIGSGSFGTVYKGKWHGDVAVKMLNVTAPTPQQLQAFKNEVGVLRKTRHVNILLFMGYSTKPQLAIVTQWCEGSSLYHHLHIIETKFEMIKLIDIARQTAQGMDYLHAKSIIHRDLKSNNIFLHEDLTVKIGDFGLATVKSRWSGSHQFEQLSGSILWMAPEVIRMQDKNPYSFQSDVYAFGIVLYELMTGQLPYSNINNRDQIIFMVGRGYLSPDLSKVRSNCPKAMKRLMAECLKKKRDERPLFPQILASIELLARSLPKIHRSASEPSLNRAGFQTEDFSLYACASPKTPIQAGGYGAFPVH
Chain of BMP-2-inducible protein kinase (Homo sapiens) (Q9NSY1 whole entry, looked up): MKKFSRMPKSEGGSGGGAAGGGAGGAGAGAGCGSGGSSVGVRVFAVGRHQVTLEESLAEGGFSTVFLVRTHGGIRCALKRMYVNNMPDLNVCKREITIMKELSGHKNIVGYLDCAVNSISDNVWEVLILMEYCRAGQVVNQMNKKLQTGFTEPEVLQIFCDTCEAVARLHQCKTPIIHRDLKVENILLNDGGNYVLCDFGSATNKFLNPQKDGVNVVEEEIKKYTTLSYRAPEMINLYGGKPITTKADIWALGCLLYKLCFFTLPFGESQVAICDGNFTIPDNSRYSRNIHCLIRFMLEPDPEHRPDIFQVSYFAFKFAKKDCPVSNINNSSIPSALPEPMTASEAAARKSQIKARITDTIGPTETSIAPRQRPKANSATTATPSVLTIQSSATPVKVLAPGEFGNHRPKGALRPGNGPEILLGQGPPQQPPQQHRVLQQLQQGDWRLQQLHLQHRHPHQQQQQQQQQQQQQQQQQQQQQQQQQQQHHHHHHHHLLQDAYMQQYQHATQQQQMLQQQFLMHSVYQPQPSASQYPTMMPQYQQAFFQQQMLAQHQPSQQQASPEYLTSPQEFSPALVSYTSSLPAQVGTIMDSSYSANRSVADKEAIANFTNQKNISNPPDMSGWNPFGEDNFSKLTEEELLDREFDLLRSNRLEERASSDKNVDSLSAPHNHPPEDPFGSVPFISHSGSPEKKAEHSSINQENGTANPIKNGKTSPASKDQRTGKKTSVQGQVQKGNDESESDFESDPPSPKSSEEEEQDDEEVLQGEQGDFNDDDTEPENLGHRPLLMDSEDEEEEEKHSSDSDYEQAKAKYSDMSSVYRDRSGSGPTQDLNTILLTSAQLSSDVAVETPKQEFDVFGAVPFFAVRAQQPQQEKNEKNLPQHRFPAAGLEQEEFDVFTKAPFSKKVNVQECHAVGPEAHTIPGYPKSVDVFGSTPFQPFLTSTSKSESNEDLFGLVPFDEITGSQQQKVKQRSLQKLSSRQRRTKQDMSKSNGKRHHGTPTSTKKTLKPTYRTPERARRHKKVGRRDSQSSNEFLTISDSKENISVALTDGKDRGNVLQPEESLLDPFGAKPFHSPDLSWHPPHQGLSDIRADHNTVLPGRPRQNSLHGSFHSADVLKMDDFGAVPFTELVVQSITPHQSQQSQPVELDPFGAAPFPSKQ
Chain of RAF proto-oncogene serine/threonine-protein kinase (Homo sapiens) (P04049 whole entry): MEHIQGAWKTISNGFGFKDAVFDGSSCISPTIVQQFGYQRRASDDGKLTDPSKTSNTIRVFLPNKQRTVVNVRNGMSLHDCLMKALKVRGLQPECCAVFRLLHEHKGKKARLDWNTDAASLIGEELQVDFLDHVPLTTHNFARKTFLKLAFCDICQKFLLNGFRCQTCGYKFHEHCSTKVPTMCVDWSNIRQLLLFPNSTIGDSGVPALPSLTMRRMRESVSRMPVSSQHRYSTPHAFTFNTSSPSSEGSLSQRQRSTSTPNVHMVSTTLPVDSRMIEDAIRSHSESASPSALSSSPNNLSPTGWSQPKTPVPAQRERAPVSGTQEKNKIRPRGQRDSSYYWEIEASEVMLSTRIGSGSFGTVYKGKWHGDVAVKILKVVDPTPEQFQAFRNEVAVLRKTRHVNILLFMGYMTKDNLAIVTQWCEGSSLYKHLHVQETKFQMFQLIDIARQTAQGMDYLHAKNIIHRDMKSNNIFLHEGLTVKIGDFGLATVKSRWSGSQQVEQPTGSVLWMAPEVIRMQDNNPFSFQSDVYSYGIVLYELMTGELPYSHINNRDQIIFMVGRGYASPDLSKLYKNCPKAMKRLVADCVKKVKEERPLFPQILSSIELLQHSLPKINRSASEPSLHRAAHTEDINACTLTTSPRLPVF
Chain of Serine/threonine-protein kinase Chk2 (Homo sapiens) (O96017 whole entry): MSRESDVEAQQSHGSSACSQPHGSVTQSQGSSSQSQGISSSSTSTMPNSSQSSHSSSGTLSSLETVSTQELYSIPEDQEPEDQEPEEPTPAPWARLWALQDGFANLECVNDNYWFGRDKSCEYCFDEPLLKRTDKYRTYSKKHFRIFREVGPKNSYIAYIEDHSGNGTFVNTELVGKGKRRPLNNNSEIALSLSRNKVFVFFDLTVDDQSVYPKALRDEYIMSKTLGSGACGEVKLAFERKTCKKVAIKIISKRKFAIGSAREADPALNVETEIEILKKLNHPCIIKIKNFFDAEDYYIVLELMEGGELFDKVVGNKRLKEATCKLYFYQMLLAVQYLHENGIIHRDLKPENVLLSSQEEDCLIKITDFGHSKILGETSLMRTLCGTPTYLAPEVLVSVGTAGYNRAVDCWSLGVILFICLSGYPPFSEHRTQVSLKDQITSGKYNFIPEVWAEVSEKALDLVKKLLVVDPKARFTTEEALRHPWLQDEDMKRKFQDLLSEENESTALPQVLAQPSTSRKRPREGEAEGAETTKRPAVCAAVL
Chain of BDNF/NT-3 growth factors receptor (Homo sapiens) (Q16620 32-822 limits assumed): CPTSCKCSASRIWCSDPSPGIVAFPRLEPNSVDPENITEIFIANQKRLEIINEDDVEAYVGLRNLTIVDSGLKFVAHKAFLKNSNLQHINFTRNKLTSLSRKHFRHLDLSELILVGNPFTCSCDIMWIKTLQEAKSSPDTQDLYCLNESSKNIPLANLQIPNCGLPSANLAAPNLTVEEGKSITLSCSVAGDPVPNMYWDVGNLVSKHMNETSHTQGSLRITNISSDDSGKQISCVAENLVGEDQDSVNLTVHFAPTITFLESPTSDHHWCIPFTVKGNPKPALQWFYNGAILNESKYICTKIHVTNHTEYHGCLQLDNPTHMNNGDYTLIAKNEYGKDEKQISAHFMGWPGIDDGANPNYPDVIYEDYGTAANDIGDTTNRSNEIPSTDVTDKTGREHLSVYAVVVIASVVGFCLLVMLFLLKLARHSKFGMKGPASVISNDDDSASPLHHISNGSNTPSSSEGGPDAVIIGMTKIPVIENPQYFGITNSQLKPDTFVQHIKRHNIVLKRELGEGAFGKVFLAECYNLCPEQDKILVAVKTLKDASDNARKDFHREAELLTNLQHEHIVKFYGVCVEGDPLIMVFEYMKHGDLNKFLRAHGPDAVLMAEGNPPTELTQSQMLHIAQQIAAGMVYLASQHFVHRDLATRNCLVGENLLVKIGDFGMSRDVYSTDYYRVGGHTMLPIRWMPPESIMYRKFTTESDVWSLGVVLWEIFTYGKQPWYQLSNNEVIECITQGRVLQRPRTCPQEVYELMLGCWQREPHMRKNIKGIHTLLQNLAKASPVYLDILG
Chain of Serine/threonine-protein kinase TBK1 (Homo sapiens) (Q9UHD2 whole entry): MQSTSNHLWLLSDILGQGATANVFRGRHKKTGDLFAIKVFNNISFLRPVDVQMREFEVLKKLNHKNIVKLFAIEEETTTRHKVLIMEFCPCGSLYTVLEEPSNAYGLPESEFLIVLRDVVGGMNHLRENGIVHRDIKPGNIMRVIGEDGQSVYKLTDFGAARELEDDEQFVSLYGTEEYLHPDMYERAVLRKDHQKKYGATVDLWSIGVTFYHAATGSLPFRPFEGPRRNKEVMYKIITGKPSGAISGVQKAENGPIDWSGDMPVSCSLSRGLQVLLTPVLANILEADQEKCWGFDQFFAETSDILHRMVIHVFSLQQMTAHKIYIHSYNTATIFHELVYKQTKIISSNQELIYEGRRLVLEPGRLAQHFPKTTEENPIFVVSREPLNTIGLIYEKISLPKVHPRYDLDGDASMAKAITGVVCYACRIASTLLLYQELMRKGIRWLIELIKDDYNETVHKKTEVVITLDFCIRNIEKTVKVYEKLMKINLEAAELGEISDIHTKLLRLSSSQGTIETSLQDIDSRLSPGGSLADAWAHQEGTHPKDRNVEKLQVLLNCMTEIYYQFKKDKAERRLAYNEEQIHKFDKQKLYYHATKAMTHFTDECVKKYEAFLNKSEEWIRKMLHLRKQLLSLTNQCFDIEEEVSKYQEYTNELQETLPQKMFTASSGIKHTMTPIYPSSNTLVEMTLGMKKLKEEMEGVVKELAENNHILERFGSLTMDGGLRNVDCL
Chain of 5-hydroxytryptamine receptor 1D (Homo sapiens) (P28221 whole entry): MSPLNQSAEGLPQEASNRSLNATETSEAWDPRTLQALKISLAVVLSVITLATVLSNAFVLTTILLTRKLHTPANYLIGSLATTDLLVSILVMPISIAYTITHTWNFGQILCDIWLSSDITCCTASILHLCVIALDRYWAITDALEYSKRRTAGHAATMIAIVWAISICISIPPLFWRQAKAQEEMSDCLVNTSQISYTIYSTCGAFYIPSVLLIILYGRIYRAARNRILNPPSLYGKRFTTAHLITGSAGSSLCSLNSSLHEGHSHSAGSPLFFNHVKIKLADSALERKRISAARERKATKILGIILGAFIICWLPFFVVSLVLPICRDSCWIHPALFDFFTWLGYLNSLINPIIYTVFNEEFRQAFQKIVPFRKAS

FC(F)(F)c1ccc2c(c1)nc(-c1cccnc1)n2C1CC1 [MSD-CYP11B2-Negative-control]
inactive: residual activity [1] 100% | residual activity [2] 100% | residual activity [3] 100% | residual activity [4] 100% | residual activity [5] 82% | residual activity [6] 100% | residual activity [7] 100% | residual activity [8] 100% | residual activity [9] 100% | residual activity [10] 100% | residual activity [11] 100% | residual activity [12] 100% | residual activity [13] 98% | residual activity [14] 100% | residual activity [15] 100% | residual activity [16] 94% | residual activity [17] 100% | residual activity [18] 94% | residual activity [19] 100% | residual activity [20] 100% | residual activity [21] 82% | residual activity [22] 85% | residual activity [23] 86% | residual activity [24] 100% | residual activity [25] 100% | residual activity [26] 100% | residual activity [27] 100% | residual activity [28] 100% | residual activity [29] 100% | residual activity [30] 100% | residual activity [31] 100% | inhibition [32] 6.79% | residual activity [33] 100% | residual activity [34] 82% | residual activity [35] 100% | residual activity [36] 100% | residual activity [37] 100% | residual activity [38] 100% | residual activity [39] 100% | residual activity [40] 100% | residual activity [41] 76% | inhibition [42] 16.9% | residual activity [43] 100% | residual activity [44] 99% | residual activity [45] 100%

CC(C)(O)c1cncc(-c2nc3ccc(F)cc3n2C2CC2)c1 [MSD-CYP11B2]
inactive: residual activity [1] 100% | residual activity [2] 100% | residual activity [3] 100% | residual activity [4] 99% | residual activity [5] 72% | residual activity [6] 100% | residual activity [7] 100% | residual activity [8] 100% | residual activity [9] 100% | residual activity [10] 100% | residual activity [11] 100% | residual activity [12] 100% | residual activity [13] 58% | residual activity [14] 100% | residual activity [15] 100% | residual activity [16] 100% | residual activity [17] 54% | residual activity [18] 100% | residual activity [19] 100% | residual activity [20] 100% | residual activity [21] 100% | residual activity [22] 100% | residual activity [23] 82% | residual activity [24] 100% | residual activity [25] 100% | residual activity [26] 100% | residual activity [27] 100% | residual activity [28] 100% | residual activity [29] 100% | residual activity [30] 100% | residual activity [31] 100% | inhibition [32] 0.75% | residual activity [33] 100% | residual activity [34] 85% | residual activity [35] 100% | residual activity [36] 100% | residual activity [37] 100% | residual activity [38] 100% | residual activity [39] 100% | residual activity [40] 100% | residual activity [41] 83% | inhibition [42] 27.7% | residual activity [43] 87% | residual activity [44] 78% | residual activity [45] 100%
